Test [1] has as its target 70S ribosome isolated from E. coli BW25113 (E. coli (endogenous in E. coli BW25113)). Kind of test: fluorescence polarisation; direct titration: 2-fold dilution series (22 steps) of crude 70S ribosome extract, cf-labeled peptide (10 uL, 40 nmol/L) added; ribosome preparation buffer (20 mmol/L HEPES-KOH, 6 mmol/L MgCl2, 30 mmol/L NH4Cl, pH 7.6); 28 +/- 1 C, 90 min. On the technique in general: Fluorescence polarisation rises when a labelled molecule tumbles more slowly, as on binding a larger partner.

Test [2] relates to in vitro expression of sfGFP in the presence of RF1. Kind of test: In vitro transcription-translation (iTT) assay of sfGFP in the presence of RF1. Type of test: biochemical. The conditions noted are these: peptide 5 µmol/L, RF1, 37 °C, 2 h, fluorescence; normalized to absence of PrAMPs; n = 3. How it is done:
The sfGFP expression analysis relied on the NEB PureExpress Delta RF123 Kit (New England Biolabs, Frankfurt, Germany). The DNA template encoding sfGFP with a UAG stop codon was amplified from the pY71sfGFP vector by PCR using the primers sfGFP fwd ([…]) and sfGFP rev ([…]). The release factor RF1 of the kit was diluted 50-fold (v/v) in 1× Pure System Buffer (PSB, 1 mol/L magnesium acetate, 0.5 mol/L K3PO4 (pH 7.3), 1 mol/L potassium glutamate, 1 mol/L NH4Cl, 0.5 mol/L CaCl2, 1 mol/L spermidine, 0.1 mol/L putrescine, 0.1 mol/L DTT). sfGFP expression was performed in a freshly prepared mixture of kit solution A (2 µL), kit solution B (1.5 µL), 50-fold diluted RF1 (0.5 µL), sfGFP template (0.1325 pmol, 35 ng) or water as control (0.25 µL), PSB (0.25 µL), and a PrAMP (50 or 0 µmol/L) dissolved in water (0.5 µL). The reaction mixture was transferred to a black 384-well plate (flat bottom, PS, 784900, Greiner Bio-One GmbH), covered with a lid, and incubated (37 °C, 2 h) in a microplate reader (Gemini EM, Molecular Devices, San Jose, CA, USA). Fluorescence was recorded every 10 min (λex = 485 nm, λem = 535 nm).

The subject of test [3] is E. coli RN31. Kind of test: Growth inhibition of E. coli RN31 during 90 min exponential growth phase. The conditions noted are these: E. coli RN31, 33% TSB, peptide 8 µg/mL, 90 min, OD600; two biological replicates (n = 2). Type of test: cell-based, Escherichia coli. Here is the method:
The following steps were performed on ice. Cells were harvested by centrifugation (4000× g, 4 °C, 25 min), washed with TICO buffer (20 mmol/L Hepes-KOH, pH 7.6, 6 mmol/L MgAc2, 30 mmol/L KAc), centrifuged (4000× g, 25 min, 4 °C), and stored at −80 °C. The cell pellet was suspended in TICO buffer (500 µL) and mixed with silica beads (zirconium glass pellets, 100 µm diameter; Carl Roth; Karlsruhe, Germany) to lyse the cells on a FastPrep-24^TM 5G (MP Biomedicals, Solon, OH, USA) using three disruption cycles (30 s, 6.0 m/s) interrupted by 1 min of incubation on ice after each cycle. Cell debris was removed by centrifugation (5000× g, 4 °C, 5 min), the supernatant was transferred to a new reaction tube, centrifuged (20,000× g, 4 °C, 20 min), the absorbance was recorded at 260 nm on a NanoPhotometer® NP80, and the sample was stored at −80 °C. […]

For test [4], the target named is 70S ribosomes isolated from E. coli BW25113 (Escherichia coli, UniProt P60723+P61175). Briefly: Fluorescence polarization, competition with cf-Api137 for 70S ribosome binding (Ki). The following applies: ratio of Ki to the Ki of Api137. Here is the method: E. coli BW25113 were cultivated in LB medium and harvested by centrifugation (5000× g, 15 min, 4 °C) at an OD600 of 3–4. Cell pellets were washed in ribosome preparation buffer (20 mmol/L HEPES-KOH, 6 mmol/L MgCl2, 30 mmol/L NH4Cl, pH 7.6, 4 °C), centrifuged (4100× g, 30 min, 4 °C), and resuspended in ribosome preparation buffer (0.5 g/L) containing freshly added 2-mercaptoethanol (4 mmol/L) and lysozyme. Cells were incubated on ice for 30 min and disrupted in six cycles using a FastPrep-24^TM 5G instrument (MP Biomedicals, Eschwege, Germany) with the BigPrep 50 mL setting (40 s, 4.0 m/s), interrupted by one minute of incubation on ice between the cycles. After a centrifugation step (1620× g, 5 min, 4 °C), DNase I (5 U/mL) was added to the supernatant and incubated for 1 h on ice. Cell debris was removed by centrifugation at 16,000× g (30 min, 4 °C) and twice at 32,000× g (60 min, 4 °C). Crude ribosomes were obtained by centrifugation at 165,000× g (17 h, 4 °C). […]
Inhibition constants (Ki) were measured for the 70S ribosome extract using cf-labeled and unlabeled peptides in ribosome preparation buffer. […] Fluorescence polarization was determined on a PARADIGM^TM microplate reader in the top reading position (λex = 485 nm, λem = 535 nm). […] Ki values were calculated as described by Mathias and Jung.

Test [5] deals with 50S subunit assembly / 70S ribosome in E. coli RN31. Briefly: Ribosome profile analysis (RPA), sucrose gradient of E. coli RN31 lysate. The format is cell-based, Escherichia coli. The conditions noted are these: E. coli RN31, 33% TSB, peptide 8 µg/mL, 90 min, 5–25% sucrose gradient; n = 2 (Api137 n = 7). Here is the method:
E. coli RN31 was grown in 33% TSB (37 °C, 200 rpm) from a starting OD600 of 0.05 to an OD600 of 0.2, measured on a NanoPhotometer® (NP80; Implen; Westlake Village, CA, USA), and divided into subcultures that were inoculated with a peptide ([…]) before being cultured for 90 min (37 °C, 200 rpm). The following steps were performed on ice. Cells were harvested by centrifugation (4000× g, 4 °C, 25 min), washed with TICO buffer (20 mmol/L Hepes-KOH, pH 7.6, 6 mmol/L MgAc2, 30 mmol/L KAc), centrifuged (4000× g, 25 min, 4 °C), and stored at −80 °C. The cell pellet was suspended in TICO buffer (500 µL) and mixed with silica beads (zirconium glass pellets, 100 µm diameter; Carl Roth; Karlsruhe, Germany) to lyse the cells on a FastPrep-24^TM 5G (MP Biomedicals, Solon, OH, USA) using three disruption cycles (30 s, 6.0 m/s) interrupted by 1 min of incubation on ice after each cycle. Cell debris was removed by centrifugation (5000× g, 4 °C, 5 min), the supernatant was transferred to a new reaction tube, centrifuged (20,000× g, 4 °C, 20 min), the absorbance was recorded at 260 nm on a NanoPhotometer® NP80, and the sample was stored at −80 °C.
A 5% (w/v) sucrose solution (6.5 mL) in TICO buffer containing 2-mercaptoethanol (4 mmol/L) was poured into an open-top centrifuge tube (13.2 mL, 14 × 89 mm, Beckman Coulter) and bottomed with a 25% (w/v) sucrose solution (6.5 mL) in TICO buffer containing 2-mercaptoethanol (4 mmol/L) using a cannula. The tube was sealed with parafilm and placed horizontally at 4 °C for 3 h and vertically at 4 °C for 30 min. A portion of the upper layer (550 µL) was replaced by lysate (500 µL, A260 = 30) and centrifuged using a swing-out rotor (SW 41 Ti, 52,500× g, 4 °C, 19 h) without a brake. The contents were transferred from bottom-up to obtain equal volumes in all wells of a black 96-well plate with a flat bottom (96 Well PP black Greiner Bio-One GmbH, Frickenhausen, Germany) using the Äkta Purifier 10 system, and absorbance was recorded at a wavelength of 254 nm. Fluorescence was measured in the plate using the PARADIGM at excitation (λex) and emission (λem) wavelengths of 485 nm and 535 nm for eGFP and 585 nm and 635 nm, respectively, for mCherry and normalized to the 70S ribosome peak (set to 100%).

Test [6] deals with 70S ribosome isolated from E. coli BW25113 (E. coli (endogenous in E. coli BW25113)). Briefly: fluorescence polarisation; competition: 2-fold dilution series (21 steps) of unlabeled peptide (20 uL, 300 umol/L) pre-incubated 90 min with crude 70S ribosome extract (at ~90% of the upper Kd plateau), then cf-Api137 (10 uL, 80 nmol/L) for 90 min; ribosome preparation buffer, 28 +/- 1 C; Ki calculated from IC50.

Where a SMILES comes first, the peptide text is derived from it. [ ]: non-standard residue; d: D form. The star is where a group is joined. Orn(α-tetramethylguanidino) = CN(C)C(=N[C@@H](CCCN)C(=O)*)N(C)C; Pro(trans-4-F) = O=C(O)[C@@H]1C[C@@H](F)CN1

In test [1], “5(6)-carboxyfluorescein-labeled Api137 (peptide)” gave a Kd of 244 nM.

With `CC[C@H](C)[C@H](NC(=O)[C@H](Cc1ccc(O)cc1)NC(=O)[C@@H](NC(=O)[C@@H]1CCCN1C(=O)[C@H](CCCNC(=N)N)NC(=O)[C@H](CC(N)=O)NC(=O)[C@H](CC(N)=O)NC(=O)[C@H](CCCN)N=C(N(C)C)N(C)C)C(C)C)C(=O)N1CCC[C@H]1C(=O)N[C@@H](CCCNC(=N)N)C(=O)N1CCC[C@H]1C(=O)N[C@@H](CCCNC(=N)N)C(=O)N1C[C@H](F)C[C@H]1C(=O)N1CCC[C@H]1C(=O)N[C@@H](Cc1c[nH]cn1)C(=O)N1CCC[C@H]1C(=O)N[C@@H](CCCNC(=N)N)C(=O)N[C@@H](CC(C)C)C(=O)O` [Api844] ({Orn(α-tetramethylguanidino)}-NNRPVYIPRPR[Pro(trans-4-F)]PHPRL-OH), in test [2], the “Residual iTT (sfGFP expression relative to no PrAMP)” value is 28 ± 1.2%. In test [3], the “reduction of bacterial growth vs untreated control” value is recorded as 70%. Besides, the “fold higher Ki than Api137” value in test [4] was determined as 8 fold. The “RPA [pre-50S formation]” value in test [5] was “yes”.

Api137 (peptide): in test [6], the Ki was 2.6 nM.

For orientation: Kd means the free concentration of one partner at which half of the binding sites on the other are occupied at equilibrium, for simple one-to-one binding. Usually Ki stands for a measure of affinity in units of concentration, obtained from inhibition or displacement.

These data come from paper PMC12189828, “Substitution of Proline Residues by 4-Fluoro-L-Proline Affects the Mechanism of the Proline-Rich Antimicrobial Peptide Api137” (Antibiotics, 2025).
